This is an account of results in ChEMBL document CHEMBL1201862, “PubChem BioAssay data set” (2004).

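A five-concentration, 48-hour dose response in 96-well plates underlies each endpoint, interpolated linearly between surrounding concentrations. GI50: concentration for 50% inhibition of growth.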 Active and inactive are the calls of the source. No stated cut-off is given here; in the data, active = GI50 up to about 1.1 µM and inactive = higher. Bounds are passed on as bounds.

Some test systems named below: BT-549; CAKI-1; CCRF-CEM; IGROV-1; K562; KM12; Malme-3M; NCI-H522; OVCAR-4; OVCAR-8; SK-MEL-28; SK-MEL-2; UO-31; ACHN; DLD-1; DMS-273; M19-MEL; UACC-257; SF-539; HOP-18.
Test in all cases: DTP human tumour cell line panel, 48 h

The term GI50 denotes the concentration giving 50% growth inhibition. Turning to `CC(=O)O[C@H]1CC[C@H]2[C@@H]3CC[C@H]4Nc5c(cnn5S(C)(=O)=O)C[C@]4(C)[C@H]3CC[C@]12C`, the GI50 is 27.5 µM (inactive) in the test with BT-549; 38.1 µM (inactive) with CAKI-1; 7.94 µM (inactive) in the test with CCRF-CEM; > 100 µM (inactive) in the test with IGROV-1; 62.7 µM (inactive) with K562; > 100 µM (inactive) with KM12. The GI50 in the test on Malme-3M is 38.7 µM (inactive); with NCI-H522 it was 70 µM (inactive); in the test with OVCAR-4, 18.5 µM (inactive); in the test on OVCAR-8 it was 45.4 µM (inactive); in the test with SK-MEL-28, 48.2 µM (inactive); in the test with SK-MEL-2 it was 61.7 µM (inactive). The GI50 with UO-31 is 88.1 µM (inactive).
Consider `COc1cc2c(cc1OC)C(=O)/C(=C/c1cc(OC)c(OC)c(OC)c1)C2`, for which the GI50 is 36.9 µM (inactive) with BT-549; > 100 µM (inactive) with CAKI-1; > 100 µM (inactive) in the test with CCRF-CEM; > 100 µM (inactive) with IGROV-1; > 100 µM (inactive) in the test with K562; > 100 µM (inactive) in the test with KM12. Also, the GI50 in the test with Malme-3M is > 100 µM (inactive); in the test with NCI-H522, 14.6 µM (inactive); with OVCAR-4 it was > 100 µM (inactive); in the test on OVCAR-8 it was > 100 µM (inactive); in the test with SK-MEL-28, > 100 µM (inactive); in the test with SK-MEL-2, > 100 µM (inactive). The GI50 in the test with UO-31 is > 100 µM (inactive).
Consider `O=C1CN2C(Cl)(Cl)C2(c2ccccc2)c2cc(Cl)ccc2N1CC(F)(F)F` (configuration not stated), for which the GI50 in the test on ACHN was 33.7 µM (inactive); in the test on CAKI-1, 49.3 µM (inactive); in the test on CCRF-CEM, 18.7 µM (inactive); with DLD-1, 16.4 µM (inactive); with DMS-273, 24.8 µM (inactive); with IGROV-1, 26.8 µM (inactive). Also, the GI50 was 27.8 µM (inactive) with K562; 19.6 µM (inactive) in the test with KM12; 38.3 µM (inactive) with M19-MEL; 22.7 µM (inactive) in the test on Malme-3M; 17.4 µM (inactive) with NCI-H522; 18.5 µM (inactive) in the test with OVCAR-4. The GI50 in the test on OVCAR-8 is 33.4 µM (inactive); in the test on SK-MEL-28 it was 22.6 µM (inactive); in the test on SK-MEL-2, 24 µM (inactive); with UACC-257, 19.6 µM (inactive); in the test with UO-31 it was 36.3 µM (inactive).
On to `CC(C)C(/C=C/c1ccc(Cl)cc1)=N\NC(=O)N/N=C(/C=C/c1ccc(Cl)cc1)C(C)C`, for which the GI50 in the test with ACHN was 29.2 µM (inactive); with BT-549, 34.4 µM (inactive); in the test on CAKI-1, 18.5 µM (inactive); in the test with CCRF-CEM it was 46.5 µM (inactive); in the test on IGROV-1, 28.8 µM (inactive); in the test with K562, 47.8 µM (inactive). Further, the GI50 was > 100 µM (inactive) in the test on KM12; 58.5 µM (inactive) in the test with Malme-3M; > 10 µM (inactive) in the test with NCI-H522; 19.6 µM (inactive) in the test on OVCAR-4; 19.4 µM (inactive) in the test on OVCAR-8; 16.7 µM (inactive) in the test with SF-539. The GI50 in the test on SK-MEL-28 was 50.9 µM (inactive); with SK-MEL-2, 26.4 µM (inactive); with UACC-257, 57.5 µM (inactive); in the test on UO-31, 40.9 µM (inactive).
With `CC12CCC([C@H](Nc3cc(C(F)(F)F)cc(C(F)(F)F)c3)C1=O)C2(C)C` (some centres not stated), the GI50 in the test on ACHN is > 100 µM (inactive); in the test with BT-549 it was > 100 µM (inactive); in the test on CAKI-1 it was > 100 µM (inactive); in the test on IGROV-1, 47.3 µM (inactive); with K562, > 100 µM (inactive); in the test on KM12 it was > 100 µM (inactive). The GI50 in the test with Malme-3M, with OVCAR-4, in the test with OVCAR-8, in the test on SF-539, in the test on SK-MEL-28 and in the test with SK-MEL-2 was > 100 µM (inactive) in each case. The GI50 with UACC-257 and in the test with UO-31 was > 100 µM (inactive) in each case.
In the case of `O=S1(=O)C[C@@H](NCc2ccccc2)[C@H](NCc2ccccc2)C1`, the GI50 is > 100 µM (inactive) in the test on ACHN; > 100 µM (inactive) in the test with BT-549; > 100 µM (inactive) in the test with CAKI-1; > 100 µM (inactive) with CCRF-CEM; 26.2 µM (inactive) in the test on IGROV-1; > 100 µM (inactive) in the test on K562. Moreover, the GI50 is > 100 µM (inactive) in the test with KM12; > 100 µM (inactive) with Malme-3M; 73.6 µM (inactive) with NCI-H522; > 100 µM (inactive) in the test with OVCAR-4; > 100 µM (inactive) in the test with OVCAR-8; > 100 µM (inactive) with SF-539. The GI50 in the test on SK-MEL-28, in the test on SK-MEL-2, with UACC-257 and in the test on UO-31 was > 100 µM (inactive) throughout.
As for `CN1C2CCC1C(CO)C(=O)C2` (configuration not stated), the GI50 was 38.6 µM (inactive) in the test with ACHN; > 100 µM (inactive) in the test on BT-549; 32.7 µM (inactive) in the test on CAKI-1; 10.2 µM (inactive) with CCRF-CEM; > 100 µM (inactive) with IGROV-1; 24.6 µM (inactive) in the test with K562. Moreover, the GI50 in the test with KM12 is > 100 µM (inactive); with Malme-3M, 28.9 µM (inactive); in the test with NCI-H522 it was 16.1 µM (inactive); in the test on OVCAR-4 it was > 100 µM (inactive); with OVCAR-8, 50.9 µM (inactive); in the test with SF-539, 23.2 µM (inactive). Further, the results for the GI50 with SK-MEL-28, in the test on SK-MEL-2 and in the test with UACC-257 were > 100 µM (inactive), > 100 µM (inactive) and 85.1 µM (inactive), respectively.
Turning to `CN1C2CC(=O)CC1[C@H](O)[C@@H]2O`, the GI50 with BT-549, in the test on CCRF-CEM, with K562, in the test with KM12, in the test on Malme-3M and in the test on OVCAR-8 was > 100 µM (inactive) each time. Further, the GI50 in the test on SK-MEL-28, with SK-MEL-2, with UACC-257 and in the test with UO-31 was > 100 µM (inactive) each time.
As to `CC1OC1C(=O)C1(O)C(C)C(O)C23OC2(C(O)c2c(O)cccc2C3=O)C1O` (configuration not stated) [CERVICARCIN], the 50% growth inhibitory concentration (GI50) in the test with CAKI-1 was 0.0497 µM (active); in the test on CCRF-CEM, 0.044 µM (active); with DLD-1, 0.167 µM (active); with DMS-273 it was 0.184 µM (active); with HOP-18 it was 0.0605 µM (active); with IGROV-1, 0.219 µM (active). In addition, the GI50 was 0.175 µM (active) with K562; 0.298 µM (active) in the test on KM12; 0.0933 µM (active) in the test on M19-MEL; 0.0431 µM (active) in the test with Malme-3M; 0.0964 µM (active) in the test on NCI-H522; 0.032 µM (active) with OVCAR-4. In addition, the GI50 in the test on OVCAR-8 is 0.172 µM (active); with SF-539 it was 0.0647 µM (active); in the test with SK-MEL-28, 0.182 µM (active); in the test on SK-MEL-2, 0.142 µM (active); in the test on UACC-257 it was 0.1 µM (active); with UO-31, 0.137 µM (active).
Turning to `COc1ccc2c3c1O[C@H]1C[C@@H](O)C=C[C@@]31CCN(C)C2` [GALANTAMINE], the GI50 in the test with CAKI-1 is 114 µM (inactive); in the test with CCRF-CEM, > 150 µM (inactive); with DLD-1 it was 50 µM (inactive); with DMS-273, > 150 µM (inactive); in the test on HOP-18 it was > 150 µM (inactive); in the test with IGROV-1, > 150 µM (inactive). The GI50 in the test on K562, in the test on KM12, in the test on M19-MEL, with Malme-3M, with NCI-H522 and in the test with OVCAR-4 was > 150 µM (inactive) throughout. Further, the GI50 is 23.8 µM (inactive) in the test on OVCAR-8; > 18.9 µM (inactive) in the test with SF-539; > 150 µM (inactive) with SK-MEL-28; > 150 µM (inactive) in the test with SK-MEL-2; > 150 µM (inactive) in the test on UACC-257; > 150 µM (inactive) in the test with UO-31.
Take `O=c1cc[nH]c(=O)[nH]1` [URACIL]: the GI50 with CAKI-1 is 307 µM (inactive); in the test with CCRF-CEM, 318 µM (inactive); in the test on DLD-1 it was 532 µM (inactive); with DMS-273 it was 403 µM (inactive); in the test with HOP-18, > 1000 µM (inactive); in the test on IGROV-1, > 828 µM (inactive). The GI50 is 465 µM (inactive) in the test on K562; 237 µM (inactive) in the test with KM12; 279 µM (inactive) with M19-MEL; 371 µM (inactive) with NCI-H522; > 656 µM (inactive) in the test with OVCAR-4; 527 µM (inactive) in the test with OVCAR-8. Further, the GI50 with SF-539 is 378 µM (inactive); in the test with SK-MEL-28 it was 327 µM (inactive); in the test on SK-MEL-2, 393 µM (inactive); in the test with UACC-257 it was 804 µM (inactive); in the test with UO-31, 1000 µM (inactive).
